Data reported in ChEMBL document CHEMBL1201862, “PubChem BioAssay data set” (2004).
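How tested: cells in 96-well plates exposed to compound for 48 hours at five concentrations. GI50 = concentration required for 50% inhibition of growth.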 Activity calls are given as the source filed them. No stated cut-off is given here; in the data, active = GI50 up to about 1.1 µM and inactive = higher.

What was measured:
Assay in all cases: NCI tumour cell line growth inhibition, 48 h
[1] = test system: BT-549
[2] = test system: CCRF-CEM
[3] = test system: DU-145
[4] = test system: HL-60
[5] = test system: HOP-92
[6] = test system: HT-29
[7] = test system: Hs-578T
[8] = test system: KM12
[9] = test system: M14
[10] = test system: MCF7
[11] = test system: MDA-MB-231
[12] = test system: Malme-3M
[13] = test system: OVCAR-8
[14] = test system: SF-539
[15] = test system: SK-MEL-28
[16] = test system: SK-MEL-2
[17] = test system: SK-MEL-5
[18] = test system: SNB-19
[19] = test system: UACC-62

Measured: GI50

COC(=O)C1(Cc2ccc3c(c2)CCC3)Cc2cc3c(cc2C1=O)CCC3 (stereo unspecified)
inactive: [1] 7.96 µM | [2] 17.7 µM | [3] 44.4 µM | [4] 6.67 µM | [5] 7.74 µM | [6] 20.3 µM | [7] 33 µM | [8] 18 µM | [9] 20.8 µM | [10] 21.4 µM | [11] 24.6 µM | [12] 41.5 µM | [13] 27.2 µM | [14] > 46.5 µM | [15] 37.2 µM | [16] 17.1 µM | [17] 14.3 µM | [18] 31.2 µM | [19] 37 µM

CC1=NN2C(=N)/C(=C/c3ccc(F)cc3)C(=O)N=C2S1
inactive: [1] > 100 µM | [2] > 100 µM | [3] > 100 µM | [4] > 100 µM | [5] 47.9 µM | [6] > 100 µM | [7] > 100 µM | [8] > 100 µM | [9] > 100 µM | [10] > 100 µM | [11] > 100 µM | [12] > 100 µM | [13] > 100 µM | [14] > 100 µM | [15] > 100 µM | [16] > 100 µM | [17] > 100 µM | [18] > 100 µM | [19] > 100 µM

Cc1cc(C)c2c(c1)CC1(Cc3c(ccc(C)c3C)C1=O)C2=O (stereo unspecified)
inactive: [1] > 100 µM | [2] > 100 µM | [3] > 100 µM | [4] > 100 µM | [5] > 100 µM | [6] > 100 µM | [7] > 100 µM | [8] > 100 µM | [9] > 100 µM | [10] > 100 µM | [11] > 100 µM | [12] > 100 µM | [13] > 100 µM | [14] > 100 µM | [15] > 100 µM | [16] > 100 µM | [17] > 100 µM | [18] > 100 µM | [19] > 100 µM

C[C@@H](C[C@H]1OC(C)(C)O[C@@H]1C(C)(C)O)[C@H]1CC=C2[C@]3(C)[C@H](O)C[C@H]4C(C)(C)[C@H](O)CC[C@]4(C)[C@H]3CC[C@]21C
inactive: [1] 11.4 µM | [2] 5.64 µM | [3] 14.1 µM | [4] 2.62 µM | [5] 6.21 µM | [6] 2.9 µM | [7] 7.33 µM | [8] 6.21 µM | [9] 9.29 µM | [10] 2.12 µM | [11] 7.93 µM | [12] 14 µM | [13] 11.6 µM | [14] 11.9 µM | [15] 9.95 µM | [16] 11.5 µM | [17] 7.36 µM | [18] 10.7 µM | [19] 11.5 µM
